Measured values: ChEMBL document CHEMBL1949518, “Synthesis and biological evaluation of some new 2-pyrazolines bearing benzene sulfonamide moiety as potential anti-inflammatory and anti-cancer agents” (Eur J Med Chem, 2011)

The molecules below were run on Rattus norvegicus (assay: Antiinflammatory activity in Wistar rat assessed as inhibition of carrageenan-induced paw edema at 20 mg/kg, po administered 30 mins before carrageenan challenge measured after 3 hrs). Details: not given.
Type: functional

Compound | inhibition in vivo at 20 mg/kg [%]
Cc1cc(O)c(C2=NN(c3ccc(S(N)(=O)=O)cc3)C(c3ccc(Cl)cc3)C2)c(C)c1Cl (stereo not drawn) | 80

These molecules were tested on HCT-116 (assay: Antiproliferative activity against human HCT116 cells assessed as cell growth at 10^-5 M after 48 hrs by SRB assay relative to control). Details: HCT-116, 48 h, read-out: Activity.
Type: functional

Compound | growth at 10 µM [%]
Cc1cc(O)c(C2=NN(c3ccc(S(N)(=O)=O)cc3)C(c3ccc(Cl)cc3)C2)c(C)c1Cl (stereo not drawn) | 41.1

These molecules were tested on MDA-MB-231 (assay: Antiproliferative activity against human MDA-MB-231 cells assessed as cell growth at 10^-5 M after 48 hrs by SRB assay relative to control). Details: MDA-MB-231, 48 h, read-out: Activity.
Type: functional

Compound | growth at 10 µM [%]
Cc1cc(O)c(C2=NN(c3ccc(S(N)(=O)=O)cc3)C(c3ccc(Cl)cc3)C2)c(C)c1Cl (stereo not drawn) | 103

These molecules were tested on T47D (assay: Antiproliferative activity against human T47D cells assessed as cell growth at 10^-5 M after 48 hrs by SRB assay relative to control). Details: read-out: Activity.
Type: functional

Compound | growth at 10 µM [%]
Cc1cc(O)c(C2=NN(c3ccc(S(N)(=O)=O)cc3)C(c3ccc(Cl)cc3)C2)c(C)c1Cl (stereo not drawn) | 37

What follows are molecules tested on SF-268 (assay: Antiproliferative activity against human SF268 cells assessed as cell growth at 10^-5 M after 48 hrs by SRB assay relative to control). Details: SF-268, 48 h, read-out: Activity.
Type: functional

Compound | growth at 10 µM [%]
Cc1cc(O)c(C2=NN(c3ccc(S(N)(=O)=O)cc3)C(c3ccc(Cl)cc3)C2)c(C)c1Cl (stereo not drawn) | 72.1

Each molecule was assayed on NCI-H322M (assay: Antiproliferative activity against human NCI-H322M cells assessed as cell growth at 10^-5 M after 48 hrs by SRB assay relative to control). Details: read-out: Activity.
Type: functional

Compound | growth at 10 µM [%]
Cc1cc(O)c(C2=NN(c3ccc(S(N)(=O)=O)cc3)C(c3ccc(Cl)cc3)C2)c(C)c1Cl (stereo not drawn) | 97.6

These molecules were tested on NCI-H460 (assay: Antiproliferative activity against human NCI-H460 cells assessed as cell growth at 10^-5 M after 48 hrs by SRB assay relative to control). Details: NCI-H460, 48 h, read-out: Activity.
Type: functional

Compound | growth at 10 µM [%]
Cc1cc(O)c(C2=NN(c3ccc(S(N)(=O)=O)cc3)C(c3ccc(Cl)cc3)C2)c(C)c1Cl (stereo not drawn) | 47.1

Each molecule was assayed on CCRF-CEM (assay: Antiproliferative activity against human CCRF-CEM cells assessed as cell growth at 10^-5 M after 48 hrs by SRB assay relative to control). Details: read-out: Activity.
Type: functional

Compound | growth at 10 µM [%]
Cc1cc(O)c(C2=NN(c3ccc(S(N)(=O)=O)cc3)C(c3ccc(Cl)cc3)C2)c(C)c1Cl (stereo not drawn) | 28

Each molecule was assayed on NCI-H522 (assay: Antiproliferative activity against human NCI-H522 cells assessed as cell growth at 10^-5 M after 48 hrs by SRB assay relative to control). Details: NCI-H522, 48 h, read-out: Activity.
Type: functional

Compound | growth at 10 µM [%]
Cc1cc(O)c(C2=NN(c3ccc(S(N)(=O)=O)cc3)C(c3ccc(Cl)cc3)C2)c(C)c1Cl (stereo not drawn) | 39.8

Each molecule was assayed on Malme-3M (assay: Antiproliferative activity against human MALME-3M cells assessed as cell growth at 10^-5 M after 48 hrs by SRB assay relative to control). Details: read-out: Activity.
Type: functional

Compound | growth at 10 µM [%]
Cc1cc(O)c(C2=NN(c3ccc(S(N)(=O)=O)cc3)C(c3ccc(Cl)cc3)C2)c(C)c1Cl (stereo not drawn) | 157

The molecules below were run on DU-145 (assay: Antiproliferative activity against human DU145 cells assessed as cell growth at 10^-5 M after 48 hrs by SRB assay relative to control). Details: DU-145, 48 h, read-out: Activity.
Type: functional

Compound | growth at 10 µM [%]
Cc1cc(O)c(C2=NN(c3ccc(S(N)(=O)=O)cc3)C(c3ccc(Cl)cc3)C2)c(C)c1Cl (stereo not drawn) | 75.2

What follows are molecules tested on A549 (assay: Antiproliferative activity against human A549 cells assessed as cell growth at 10^-5 M after 48 hrs by SRB assay relative to control). Details: A549, 48 h, read-out: Activity.
Type: functional

Compound | growth at 10 µM [%]
Cc1cc(O)c(C2=NN(c3ccc(S(N)(=O)=O)cc3)C(c3ccc(Cl)cc3)C2)c(C)c1Cl (stereo not drawn) | 40.8

The molecules below were run on SF-295 (assay: Antiproliferative activity against human SF295 cells assessed as cell growth at 10^-5 M after 48 hrs by SRB assay relative to control). Details: SF-295, 48 h, read-out: Activity.
Type: functional

Compound | growth at 10 µM [%]
Cc1cc(O)c(C2=NN(c3ccc(S(N)(=O)=O)cc3)C(c3ccc(Cl)cc3)C2)c(C)c1Cl (stereo not drawn) | 6.34

Each molecule was assayed on MCF7 (assay: Antiproliferative activity against human MCF7 cells assessed as cell growth at 10^-5 M after 48 hrs by SRB assay relative to control). Details: MCF7, 48 h, read-out: Activity.
Type: functional

Compound | growth at 10 µM [%]
Cc1cc(O)c(C2=NN(c3ccc(S(N)(=O)=O)cc3)C(c3ccc(Cl)cc3)C2)c(C)c1Cl (stereo not drawn) | 37.2

The molecules below were run on IGROV-1 (assay: Antiproliferative activity against human IGROV1 cells assessed as cell growth at 10^-5 M after 48 hrs by SRB assay relative to control). Details: IGROV-1, 48 h, read-out: Activity.
Type: functional

Compound | growth at 10 µM [%]
Cc1cc(O)c(C2=NN(c3ccc(S(N)(=O)=O)cc3)C(c3ccc(Cl)cc3)C2)c(C)c1Cl (stereo not drawn) | 34.1

The molecules below were run on HL-60(TB) (assay: Antiproliferative activity against human HL-60(TB) cells assessed as cell growth at 10^-5 M after 48 hrs by SRB assay relative to control). Details: HL-60, 48 h, read-out: Activity.
Type: functional

Compound | growth at 10 µM [%]
Cc1cc(O)c(C2=NN(c3ccc(S(N)(=O)=O)cc3)C(c3ccc(Cl)cc3)C2)c(C)c1Cl (stereo not drawn) | 24.1

These molecules were tested on SK-MEL-28 (assay: Antiproliferative activity against human SK-MEL-28 cells assessed as cell growth at 10^-5 M after 48 hrs by SRB assay relative to control). Details: SK-MEL-28, 48 h, read-out: Activity.
Type: functional

Compound | growth at 10 µM [%]
Cc1cc(O)c(C2=NN(c3ccc(S(N)(=O)=O)cc3)C(c3ccc(Cl)cc3)C2)c(C)c1Cl (stereo not drawn) | 90.2

Each molecule was assayed on NCI/ADR-RES (assay: Antiproliferative activity against human NCI/ADR-RES cells assessed as cell growth at 10^-5 M after 48 hrs by SRB assay relative to control). Details: read-out: Activity.
Type: functional

Compound | growth at 10 µM [%]
Cc1cc(O)c(C2=NN(c3ccc(S(N)(=O)=O)cc3)C(c3ccc(Cl)cc3)C2)c(C)c1Cl (stereo not drawn) | 85.7

What follows are molecules tested on SNB-19 (assay: Antiproliferative activity against human SNB19 cells assessed as cell growth at 10^-5 M after 48 hrs by SRB assay relative to control). Details: SNB-19, 48 h, read-out: Activity.
Type: functional

Compound | growth at 10 µM [%]
Cc1cc(O)c(C2=NN(c3ccc(S(N)(=O)=O)cc3)C(c3ccc(Cl)cc3)C2)c(C)c1Cl (stereo not drawn) | 107

These molecules were tested on UACC-62 (assay: Antiproliferative activity against human UACC62 cells assessed as cell growth at 10^-5 M after 48 hrs by SRB assay relative to control). Details: UACC-62, 48 h, read-out: Activity.
Type: functional

Compound | growth at 10 µM [%]
Cc1cc(O)c(C2=NN(c3ccc(S(N)(=O)=O)cc3)C(c3ccc(Cl)cc3)C2)c(C)c1Cl (stereo not drawn) | 64.8

What follows are molecules tested on SW-620 (assay: Antiproliferative activity against human SW620 cells assessed as cell growth at 10^-5 M after 48 hrs by SRB assay relative to control). Details: SW-620, 48 h, read-out: Activity.
Type: functional

Compound | growth at 10 µM [%]
Cc1cc(O)c(C2=NN(c3ccc(S(N)(=O)=O)cc3)C(c3ccc(Cl)cc3)C2)c(C)c1Cl (stereo not drawn) | 72.2

Each molecule was assayed on OVCAR-3 (assay: Antiproliferative activity against human OVCAR3 cells assessed as cell growth at 10^-5 M after 48 hrs by SRB assay relative to control). Details: OVCAR-3, 48 h, read-out: Activity.
Type: functional

Compound | growth at 10 µM [%]
Cc1cc(O)c(C2=NN(c3ccc(S(N)(=O)=O)cc3)C(c3ccc(Cl)cc3)C2)c(C)c1Cl (stereo not drawn) | 80.3

These molecules were tested on SR (assay: Antiproliferative activity against human SR cells assessed as cell growth at 10^-5 M after 48 hrs by SRB assay relative to control). Details: read-out: Activity.
Type: functional

Compound | growth at 10 µM [%]
Cc1cc(O)c(C2=NN(c3ccc(S(N)(=O)=O)cc3)C(c3ccc(Cl)cc3)C2)c(C)c1Cl (stereo not drawn) | -22.2

These molecules were tested on HCT-15 (assay: Antiproliferative activity against human HCT15 cells assessed as cell growth at 10^-5 M after 48 hrs by SRB assay relative to control). Details: HCT-15, 48 h, read-out: Activity.
Type: functional

Compound | growth at 10 µM [%]
Cc1cc(O)c(C2=NN(c3ccc(S(N)(=O)=O)cc3)C(c3ccc(Cl)cc3)C2)c(C)c1Cl (stereo not drawn) | 80.5

The molecules below were run on COLO 205 (assay: Antiproliferative activity against human COLO205 cells assessed as cell growth at 10^-5 M after 48 hrs by SRB assay relative to control). Details: COLO 205, 48 h, read-out: Activity.
Type: functional

Compound | growth at 10 µM [%]
Cc1cc(O)c(C2=NN(c3ccc(S(N)(=O)=O)cc3)C(c3ccc(Cl)cc3)C2)c(C)c1Cl (stereo not drawn) | 76.2

The molecules below were run on NCI-H23 (assay: Antiproliferative activity against human NCI-H23 cells assessed as cell growth at 10^-5 M after 48 hrs by SRB assay relative to control). Details: NCI-H23, 48 h, read-out: Activity.
Type: functional

Compound | growth at 10 µM [%]
Cc1cc(O)c(C2=NN(c3ccc(S(N)(=O)=O)cc3)C(c3ccc(Cl)cc3)C2)c(C)c1Cl (stereo not drawn) | 79.3

These molecules were tested on MDA-MB-468 (assay: Antiproliferative activity against human MDA-MB-468 cells assessed as cell growth at 10^-5 M after 48 hrs by SRB assay relative to control). Details: MDA-MB-468, 48 h, read-out: Activity.
Type: functional

Compound | growth at 10 µM [%]
Cc1cc(O)c(C2=NN(c3ccc(S(N)(=O)=O)cc3)C(c3ccc(Cl)cc3)C2)c(C)c1Cl (stereo not drawn) | 91.1

Each molecule was assayed on SF-539 (assay: Antiproliferative activity against human SF539 cells assessed as cell growth at 10^-5 M after 48 hrs by SRB assay relative to control). Details: SF-539, 48 h, read-out: Activity.
Type: functional

Compound | growth at 10 µM [%]
Cc1cc(O)c(C2=NN(c3ccc(S(N)(=O)=O)cc3)C(c3ccc(Cl)cc3)C2)c(C)c1Cl (stereo not drawn) | 91.6

What follows are molecules tested on PC-3 (assay: Antiproliferative activity against human PC3 cells assessed as cell growth at 10^-5 M after 48 hrs by SRB assay relative to control). Details: PC-3, 48 h, read-out: Activity.
Type: functional

Compound | growth at 10 µM [%]
Cc1cc(O)c(C2=NN(c3ccc(S(N)(=O)=O)cc3)C(c3ccc(Cl)cc3)C2)c(C)c1Cl (stereo not drawn) | 13.6

What follows are molecules tested on SK-OV-3 (assay: Antiproliferative activity against human SKOV3 cells assessed as cell growth at 10^-5 M after 48 hrs by SRB assay relative to control). Details: SK-OV-3, 48 h, read-out: Activity.
Type: functional

Compound | growth at 10 µM [%]
Cc1cc(O)c(C2=NN(c3ccc(S(N)(=O)=O)cc3)C(c3ccc(Cl)cc3)C2)c(C)c1Cl (stereo not drawn) | 106

Each molecule was assayed on MOLT-4 (assay: Antiproliferative activity against human MOLT4 cells assessed as cell growth at 10^-5 M after 48 hrs by SRB assay relative to control). Details: MOLT-4, 48 h, read-out: Activity.
Type: functional

Compound | growth at 10 µM [%]
Cc1cc(O)c(C2=NN(c3ccc(S(N)(=O)=O)cc3)C(c3ccc(Cl)cc3)C2)c(C)c1Cl (stereo not drawn) | 27.3

What follows are molecules tested on RXF 393 (assay: Antiproliferative activity against human RXF393 cells assessed as cell growth at 10^-5 M after 48 hrs by SRB assay relative to control). Details: RXF 393, 48 h, read-out: Activity.
Type: functional

Compound | growth at 10 µM [%]
Cc1cc(O)c(C2=NN(c3ccc(S(N)(=O)=O)cc3)C(c3ccc(Cl)cc3)C2)c(C)c1Cl (stereo not drawn) | 93.4

What follows are molecules tested on ACHN (assay: Antiproliferative activity against human ACHN cells assessed as cell growth at 10^-5 M after 48 hrs by SRB assay relative to control). Details: read-out: Activity.
Type: functional

Compound | growth at 10 µM [%]
Cc1cc(O)c(C2=NN(c3ccc(S(N)(=O)=O)cc3)C(c3ccc(Cl)cc3)C2)c(C)c1Cl (stereo not drawn) | 88.6
